# Data from US5270041A, “Sterols, their fatty acid esters and glucosides; processes for their preparation; spontaneously dispersible agents containing these compounds, and their use for treatment of tumors” (Marigen S.A., priority 1989, dated 1993).
# Columns and labels:
# [1] = system: TSA: murine adenocarcinoma (spontaneous cancer of the breast); assay: In-vitro plaque assay of MARIGENOL microemulsions, greatest cytotoxic dilution, TSA; assay type: cell-based; settings: cell line TSA; 5 h; microemulsion 0,1%
# Experimental: A biological assay system using microtiter plates and serial dilutions has been developed Batches of 10^4 tumour cells per ml were set up in culture medium RPMI 1640 and […] with 10% of fetal calf serum (GIBCO); the cells are spread at a density low enough to enable them to grow during the assay in so-called non-confluent monolayers. Samples are added after 6-24 hours, with 100 μl per row, to which 100 μl of medium are added in the first well. Half of this mixture is withdrawn, transferred into the next well and again treated with 100 μl of medium, etc.
# In the plaque assay, the samples are incubated at 37° C. for 3-5 days under 31/2% of CO2. They are then stained and fixed using 0.1% crystal violet (Fluka, Buchs) in a solution of 70% of methanol, 1% of formaldehyde and 29% water. The samples are evaluated under the microscope, magnification 300×. The greatest cytotoxic dilution is determined. The samples can also be evaluated quantitatively by means of scanning and absorption measurement in a spectrophotometer.
# TSA adenocarcinoma = assay: In-vivo assay on mice, TSA tumour growth, MARIGENOL 0,1% microemulsions; set-up: species or system mice (Balb-c); key: + swelling; settings: 0,1% microemulsion
# Experimental: The in-vivo assays were carried out on female mice. Old Balb-c strain animals of 28-32 g body weight were used (Charles River, Milan). Used as comparison standards throughout was the spontaneous adenocarcinoma TSA, a murine tumour cell line which was provided regularly by Prof. Guido Forni, Istituto di Microbiologia, Universita degli Studi di Torino, Scuola di Medicina.
# A series of groups of 5 test animals each were fed with ordinary test feed (NAFAG complete feed No. 850, from Nahr- und Futtermittel AG, Gossau).
# 14 days after the introduction (average latency period), the newly-formed tissue is palpitated; ditto after 21 and after 28 days, and in some cases 35, days. The mean of the length and width of the solid, distinct tumour mass under the skin is determined (postmortem recheck).
# To test the activity of the preparations in live organisms, the remaining test animals receive a daily dose of 0.25 ml of a test preparation by tube, in addition to the ordinary test feed. After an adaptation period of 5-7 days, the tumour is introduced, likewise inguinally, with 80-100'000 TSA units, as for the controls. It takes in every single case, in the group and on repetition, thus permitting the statistical groups to be kept to a relatively low number.
# The experimental set-up is the same as in the case of gavage. Instead of using a tube, the preparations to be tested are administered inguinally by injection (right flank, subcutaneously), at a rate of 0.25 ml 3 times per week.
Molecule,Active in dilution to 1: [1],Tumor mass Σ1/2 L + B (TSA adenocarcinoma; TSA after 14 days),Tumor mass Σ1/2 L + B (TSA adenocarcinoma; TSA after 21 days),Tumor mass Σ1/2 L + B (TSA adenocarcinoma; TSA after 28 days) [mm]
"CCCCCCCCCCCCCCCC(=O)O[C@H]1CC[C@@]2(C)C(=CC[C@H]3[C@@H]4CC[C@H]([C@H](C)/C=C/[C@@H](CC)C(C)C)[C@@]4(C)CC[C@@H]32)C1 [C 16:0 STIGMASTEROL, STIGMASTEROL-PALMITATE]",80 1:,,,
"CC/C=C\C/C=C\C/C=C\CCCCCCCC(=O)O[C@H]1CC[C@@]2(C)C(=CC[C@H]3[C@@H]4CC[C@H]([C@H](C)CC[C@@H](CC)C(C)C)[C@@]4(C)CC[C@@H]32)C1 [C 18:3-SITOSTEROL, stigmast-5-en-3-ol-9,12,15-octadecatrienoate]",,+,+,1
"CCCCC/C=C\C/C=C\CCCCCCCC(=O)O[C@H]1CC[C@@]2(C)C(=CC[C@H]3[C@@H]4CC[C@H]([C@H](C)CC[C@@H](CC)C(C)C)[C@@]4(C)CC[C@@H]32)C1 [β-Sitosterol-linoleate, stigmast-5-en-3-ol-9,12-octadecadienoate]",,0 mm,+,1
stigmast-5-en 3-ol-dodecenoate [C 12:1-SITOSTEROL],640 1:,1 mm,0 mm,2
"stigmasta-5,22-dien-3-ol-doiecenoate [Stigmasterol-dodecenoate]",,0 mm,0 mm,2
β-SITOSTEROLUNDECENOATE [C 11:1-SITOSTEROL],40 1:,,,
